Target: farnesyl protein transferase (Homo sapiens, UniProt P49354+P49356)
Assay: FPT IC50 (inhibition of farnesyl protein transferase, in vitro enzyme assay)
Type: biochemical
Settings: procedure of WO 95/10516
Description: FPT IC50 (inhibition of farnesyl protein transferase, in vitro enzyme assay) was determined, and COS Cell IC50 (Cell-Based Assay) could be determined following the assay procedures described in WO 95/10516, published Apr. 20, 1995. GGPT IC50 (inhibition of geranylgeranyl protein transferase, in vitro enzyme assay), Cell Mat Assay, and anti-tumor activity (in vivo anti-tumor studies) could be determined by the assay procedures described in WO 95/10516. The disclosure of WO 95/10516 is incorporated herein by reference thereto.

Compound	IC50
CCOC(=O)CCCNC(=O)[C@H]1CN(C(=O)OC(C)(C)C)CCN1C1c2ccc(Cl)cc2CCc2cccnc21 (single isomer, unassigned) [compound 6, 4-(8-Chloro-6,11-dihydro-5H-benzo[5,6]cyclohepta[1,2-b]pyridin-11-yl)-3R-(3-ethoxycarbonyl-propylcarbamoyl)-piperazine-1-carboxylic acid tert-butyl ester]	5.2 nM
CCOC(=O)CCCNC(=O)[C@H]1CN(C(=O)OC(C)(C)C)CCN1C1c2ccc(Cl)cc2CCc2cccnc21 (single isomer, unassigned) [compound 7, 4-(8-Chloro-6,11-dihydro-5H-benzo[5,6]cyclohepta[1,2-b]pyridin-11-yl)-3R-(3-ethoxycarbonyl-propylcarbamoyl)-piperazine-1-carboxylic acid tert-butyl ester]	5.5 nM
CC(C)(C)OC(=O)N1CCN(C2c3ccc(Cl)cc3CCc3cccnc32)[C@@H](C(=O)NCCCC(=O)O)C1 (single isomer, unassigned) [compound 8, 3R-(3-Carboxy-propylcarbamoyl)-4-(8-chloro-6,11-dihydro-5H-benzo[5,6]cyclohepta[1,2-b]pyridin-11-yl)-piperazine-1-carboxylic acid tert-butyl ester]	5.5 nM
CC(C)(C)OC(=O)N1CCN(C2c3ccc(Cl)cc3CCc3cccnc32)[C@@H](C(=O)NCCCC(=O)O)C1 (single isomer, unassigned) [compound 9, 3R-(3-Carboxy-propylcarbamoyl)-4-(8-chloro-6,11-dihydro-5H-benzo[5,6]cyclohepta[1,2-b]pyridin-11-yl)-piperazine-1-carboxylic acid tert-butyl ester]	6.3 nM
CC(C)(C)OC(=O)N1CCN(C2c3ccc(Cl)cc3CCc3cccnc32)[C@@H](C(=O)NCCCn2ccnc2)C1 (stereo partly drawn) [Compound 12, 4-(8-Chloro-6,11-dihydro-5H-benzo[5,6]cyclohepta[1,2-b]pyridin-11-yl)-3R-(3-imidazol-1-yl-propylcarbamoyl)-piperazine-1-carboxylic acid tert-butyl ester]	1.2 nM

— patent publication US20070213340A1, “Farnesyl protein transferase inhibitors” (priority 2006, published 2007)
